# Where a SMILES comes first, the peptide text is derived from it. [ ]: non-standard residue; d: D form. The star is where a group is joined. ξ: configuration not given here. NMeF = CN[C@@H](Cc1ccccc1)C(=O)O; Cbz = O=C(OCc1ccccc1)*; ξV = CC(C)C(N)C(=O)O
# How the values were obtained:
# [1] = molecular target: T1, Calpain-1 catalytic subunit (Homo sapiens, UniProt P07384); assay: Tested for inhibitory activity against calpain.
# T1 sequence (P07384 whole entry): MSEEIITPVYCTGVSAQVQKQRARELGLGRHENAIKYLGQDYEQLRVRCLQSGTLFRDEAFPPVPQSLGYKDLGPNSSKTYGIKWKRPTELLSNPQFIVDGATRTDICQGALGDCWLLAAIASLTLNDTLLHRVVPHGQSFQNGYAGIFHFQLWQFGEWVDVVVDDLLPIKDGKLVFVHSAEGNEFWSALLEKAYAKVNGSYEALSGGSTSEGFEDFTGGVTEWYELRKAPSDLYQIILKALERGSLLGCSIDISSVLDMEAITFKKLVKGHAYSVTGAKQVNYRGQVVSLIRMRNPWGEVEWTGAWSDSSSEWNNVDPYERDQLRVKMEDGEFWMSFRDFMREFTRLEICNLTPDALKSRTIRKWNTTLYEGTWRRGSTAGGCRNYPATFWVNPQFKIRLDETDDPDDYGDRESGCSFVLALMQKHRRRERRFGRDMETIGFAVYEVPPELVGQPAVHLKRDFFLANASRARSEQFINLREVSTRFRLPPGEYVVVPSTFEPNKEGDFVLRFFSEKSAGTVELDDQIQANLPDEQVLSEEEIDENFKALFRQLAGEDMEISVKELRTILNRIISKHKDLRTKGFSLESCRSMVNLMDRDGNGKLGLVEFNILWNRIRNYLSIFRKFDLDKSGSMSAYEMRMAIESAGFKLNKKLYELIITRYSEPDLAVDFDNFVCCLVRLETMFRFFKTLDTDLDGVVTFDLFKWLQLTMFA
# [2] = molecular target: T1, Calpain-1 catalytic subunit; assay: Tested for inhibitory activity against calpain; NA means Not active
# Cathepsin B = Cathepsin B (Bos taurus, UniProt P07688); assay: Tested for inhibitory activity against bovine cathepsin B.
# [3] = molecular target: T1, Calpain-1 catalytic subunit; assay: Tested for inhibitory activity against calpain
SMILES,Ki [1],also measured
CC(C)C(NC(=O)OCc1ccccc1)C(=O)N(C)[C@H](C=O)Cc1ccccc1 (stereo not given in full) (Cbz-[ξV]-[NMeF]-aldehyde),400 nM,–
CC(C)C(NC(=O)OCc1ccccc1)C(=O)N1CC[C@@H](O)[C@@H]1Cc1ccccc1 (stereo not given in full),–,Ki [2]: Not Active
CC(C)C(NC(=O)OCc1ccccc1)C(=O)N(CO)[C@H](C=O)Cc1ccccc1 (stereo not given in full),400 nM,–
O=C(N[C@H]1CCC[C@H]2O[C@@H](O)[C@H](Cc3ccccc3)N2C1=O)OCc1ccccc1.O=C(N[C@H]1CCC[C@H]2O[C@H](O)[C@@H](Cc3ccccc3)N2C1=O)OCc1ccccc1,1500 nM,–
CC(C)C(NC(=O)OCc1ccccc1)C(=O)N1CO[C@@H](O)[C@@H]1Cc1ccccc1 (stereo not given in full),33 nM,Ki (Cathepsin B): 120 nM
O=C1c2ccccc2C(=O)N1[C@H]1CCC[C@H]2O[C@@H](O)[C@H](Cc3ccccc3)N2C1=O.O=C1c2ccccc2C(=O)N1[C@H]1CCC[C@H]2O[C@H](O)[C@@H](Cc3ccccc3)N2C1=O,3200 nM,–
CC(C)[C@@H](NC(=O)OCc1ccccc1)C(=O)N1CCO[C@@H](O)[C@@H]1Cc1ccccc1,56000 nM,–
CC(C)C(NC(=O)OCc1ccccc1)C(=O)N1C(=O)C[C@H](O)[C@@H]1Cc1ccccc1 (stereo not given in full),–,Ki [2]: Not Active
CC(=O)O[C@@H]1OCN(C(=O)C(NC(=O)OCc2ccccc2)C(C)C)[C@H]1Cc1ccccc1 (stereo not given in full),–,Ki [3]: 2000 nM

# — ChEMBL document CHEMBL1131841, “Hydroxyoxazolidines as alpha-aminoacetaldehye equivalents: novel inhibitors of calpain” (Bioorg Med Chem Lett, 1999)
